Consider 1 compound from patent US6967200B2, “Remedies for cirrhosis” (Shionogi & Co., Ltd., priority 2000, dated 2005).

This assay has as its target T1, Human type-X sPLA2 (Homo sapiens, UniProt O15496).
T1 construct: made in house; host or cells: CHO cells stably transfected with a pSVL SV40 late promoter expression vector; unpurified culture supernatant used as the enzyme source
T1 sequence (O15496 43-165): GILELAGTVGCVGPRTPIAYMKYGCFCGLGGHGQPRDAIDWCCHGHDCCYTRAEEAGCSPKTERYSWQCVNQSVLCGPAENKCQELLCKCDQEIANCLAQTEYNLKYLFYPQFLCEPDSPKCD
In words: type-X sPLA2 inhibition test (chromogenic assay, diheptanoylthio PC substrate). The assay is classed as biochemical. Particulars: diheptanoylthio PC 1 mM, 30 min at 40° C., pH 7.5, absorbance at 405 nm. The text has this: cDNA sequence encoding human type-X sPLA2 (Cupillard et al., J. Biol. Chem, 1997, 272, 15745-15752) was inserted into the downstream region of the promoter of pSVL SV40 Late Promoter Expression Vector (Amersham Pharmacia Biotech Inc.) that is an expression vector for mammalian cells. The obtained expression vector was transfected into the host CHO cells with a LipofectAMINE reagent (Gibco BRL Inc.) according to the manufacture's instruction to obtain the CHO cells stably expressing human type-X sPLA2.
In order to identify and evaluate an inhibitor of type-X sPLA2, the following chromogenic assay is utilized. This assay has been applied for high volume screening using a 96-well microtiterplate. A general explanation for this assay is described in “Analysis of Human Synovial Fluid Phospholipase A2 on Short Chain Phosphatidylcholine-Mixed Micelles: Development of a Spectrophotometric Assay Suitable for a Micortiterplate Reader” (Analytical Biochemistry, 204, pp 190-197, 1992 by Laure. J. Reynolds. Lori L. Hughes and Edward A. Dennis.
Human type-X sPLA2 was incubated (30 min at 40° C. (15 μl/well)) with diheptanoylthio PC (1 mM) in the presence of Triton X-100 (0.3 mM) and 5,5′-dithiobis(2-nitrobenzoic acid) (125 μM) in Tris-HCl buffer (25 mM, pH 7.5) containing CaCl2 (10 mM), KCl (100 mM), and bovine serum albumin (1.0 mg/mL). […]

In general, IC50 refers to the concentration needed to halve the response being measured. High values mean weaker potency, low ones greater potency. For the compound `NC(=O)C1=CCCc2c1c1c(OCC(=O)O)nccn1c2Cc1ccccc1` [Compound 7], 5 nM corresponded to half-maximal inhibition (IC50).
